Source: ChEMBL document CHEMBL1148572, “1-((S)-2-aminopropyl)-1H-indazol-6-ol: a potent peripherally acting 5-HT2 receptor agonist with ocular hypotensive activity” (J Med Chem, 2006)

How the values were obtained:
[1] = biological target: Glutamate [NMDA] receptor (Homo sapiens) (UniProt Q05586+Q12879+Q13224+O15399+O60391+Q14957+Q8TCU5); experiment: Inhibition of agonist site of NMDA receptor at 1 nM; assay type: functional
MDR1 (P-gp) = experiment: Permeability from apical to basolateral side of the MDCK cell transfected with human MDR1; assay type: ADME, cell-based
[2] = biological target: T1, B2 bradykinin receptor (Homo sapiens) (UniProt P30411); experiment: Inhibition of bradykinin 2 receptor at 100 nM
T1 sequence (whole entry): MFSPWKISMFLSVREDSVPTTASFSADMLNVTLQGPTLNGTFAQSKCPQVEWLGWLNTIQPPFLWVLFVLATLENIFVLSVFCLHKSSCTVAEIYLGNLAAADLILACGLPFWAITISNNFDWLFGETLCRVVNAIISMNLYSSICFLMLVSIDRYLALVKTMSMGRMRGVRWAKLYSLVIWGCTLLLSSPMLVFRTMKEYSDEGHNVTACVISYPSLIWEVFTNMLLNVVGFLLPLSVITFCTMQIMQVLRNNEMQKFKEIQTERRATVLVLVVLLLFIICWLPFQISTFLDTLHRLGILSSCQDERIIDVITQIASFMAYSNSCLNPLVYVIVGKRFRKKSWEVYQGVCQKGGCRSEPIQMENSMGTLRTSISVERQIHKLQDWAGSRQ

[3] = biological target: Dopamine receptor (Homo sapiens) (UniProt P14416+P35462+P21918+P21917+P21728); experiment: Inhibition of non selective binding to dopamine receptor at 100 nM; assay type: protein assay
[4] = biological target: T2, Endothelin-1 receptor (Homo sapiens) (UniProt P25101); experiment: Inhibition of human recombinant endothelin 1 receptor at 100 nM
T2 sequence (whole entry): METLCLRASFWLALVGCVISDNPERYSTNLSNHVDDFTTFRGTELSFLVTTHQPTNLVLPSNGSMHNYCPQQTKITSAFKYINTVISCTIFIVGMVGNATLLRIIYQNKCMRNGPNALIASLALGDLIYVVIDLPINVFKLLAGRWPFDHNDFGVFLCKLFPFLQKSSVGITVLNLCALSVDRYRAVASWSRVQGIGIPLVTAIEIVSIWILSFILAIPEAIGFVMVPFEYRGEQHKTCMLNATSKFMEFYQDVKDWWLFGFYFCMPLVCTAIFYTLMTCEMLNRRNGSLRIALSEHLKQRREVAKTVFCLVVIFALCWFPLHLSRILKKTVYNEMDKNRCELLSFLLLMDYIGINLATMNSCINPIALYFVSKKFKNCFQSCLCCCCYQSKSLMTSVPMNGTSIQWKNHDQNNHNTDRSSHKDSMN

[5] = biological target: T3, 5-hydroxytryptamine receptor 1A (Homo sapiens, UniProt P08908); experiment: Agonistic activity at cloned human 5HT1A receptor expressed in CHO cells by inhibition of forskolin-induced cAMP production; assay type: functional, cell-based
T3 sequence (P08908 whole entry): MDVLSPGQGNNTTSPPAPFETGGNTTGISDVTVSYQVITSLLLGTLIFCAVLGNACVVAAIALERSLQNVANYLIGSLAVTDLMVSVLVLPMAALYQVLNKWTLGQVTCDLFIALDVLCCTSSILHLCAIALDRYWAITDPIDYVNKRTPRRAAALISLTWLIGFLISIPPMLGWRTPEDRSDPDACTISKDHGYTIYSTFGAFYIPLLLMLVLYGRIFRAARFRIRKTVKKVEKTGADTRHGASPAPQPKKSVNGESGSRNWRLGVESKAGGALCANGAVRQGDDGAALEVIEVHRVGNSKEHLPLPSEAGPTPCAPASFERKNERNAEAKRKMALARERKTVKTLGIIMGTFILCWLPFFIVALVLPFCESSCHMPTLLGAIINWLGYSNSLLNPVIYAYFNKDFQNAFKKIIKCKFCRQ

[6] = biological target: Serotonin 3 (5-HT3) receptor; experiment: Inhibitory activity against 5HT3 receptor; assay type: protein-complex assay, Homo sapiens
[7] = biological target: Leukotriene B4 receptor (Homo sapiens) (UniProt Q9NPC1+Q15722); experiment: Inhibition of leukotriene B4 at 10 uM; assay type: protein assay
Chain of Leukotriene B4 receptor (Homo sapiens) (Q15722 whole entry, looked up): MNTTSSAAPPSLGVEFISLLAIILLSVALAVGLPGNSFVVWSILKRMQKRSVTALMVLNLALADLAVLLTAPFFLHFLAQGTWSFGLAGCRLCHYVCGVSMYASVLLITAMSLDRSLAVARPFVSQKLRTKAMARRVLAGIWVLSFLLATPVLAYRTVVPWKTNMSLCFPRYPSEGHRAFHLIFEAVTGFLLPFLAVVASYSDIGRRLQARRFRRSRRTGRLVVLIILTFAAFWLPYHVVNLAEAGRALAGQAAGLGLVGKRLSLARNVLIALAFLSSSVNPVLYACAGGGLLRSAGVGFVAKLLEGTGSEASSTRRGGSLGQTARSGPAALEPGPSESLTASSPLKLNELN
Chain of Leukotriene B4 receptor (Homo sapiens) (Q9NPC1 whole entry, looked up): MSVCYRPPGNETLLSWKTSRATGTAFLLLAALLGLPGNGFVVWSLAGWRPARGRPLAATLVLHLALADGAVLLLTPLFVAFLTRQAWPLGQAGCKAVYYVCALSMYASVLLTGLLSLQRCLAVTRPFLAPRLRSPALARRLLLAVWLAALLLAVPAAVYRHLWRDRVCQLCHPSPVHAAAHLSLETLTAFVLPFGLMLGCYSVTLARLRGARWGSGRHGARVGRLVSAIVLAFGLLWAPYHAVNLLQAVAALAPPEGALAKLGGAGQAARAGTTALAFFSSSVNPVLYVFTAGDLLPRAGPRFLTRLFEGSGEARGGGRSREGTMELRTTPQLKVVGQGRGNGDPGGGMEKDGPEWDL

[8] = biological target: T4, Sodium-dependent noradrenaline transporter (Homo sapiens, UniProt P23975); experiment: Inhibitory activity against NET
T4 sequence (P23975 whole entry): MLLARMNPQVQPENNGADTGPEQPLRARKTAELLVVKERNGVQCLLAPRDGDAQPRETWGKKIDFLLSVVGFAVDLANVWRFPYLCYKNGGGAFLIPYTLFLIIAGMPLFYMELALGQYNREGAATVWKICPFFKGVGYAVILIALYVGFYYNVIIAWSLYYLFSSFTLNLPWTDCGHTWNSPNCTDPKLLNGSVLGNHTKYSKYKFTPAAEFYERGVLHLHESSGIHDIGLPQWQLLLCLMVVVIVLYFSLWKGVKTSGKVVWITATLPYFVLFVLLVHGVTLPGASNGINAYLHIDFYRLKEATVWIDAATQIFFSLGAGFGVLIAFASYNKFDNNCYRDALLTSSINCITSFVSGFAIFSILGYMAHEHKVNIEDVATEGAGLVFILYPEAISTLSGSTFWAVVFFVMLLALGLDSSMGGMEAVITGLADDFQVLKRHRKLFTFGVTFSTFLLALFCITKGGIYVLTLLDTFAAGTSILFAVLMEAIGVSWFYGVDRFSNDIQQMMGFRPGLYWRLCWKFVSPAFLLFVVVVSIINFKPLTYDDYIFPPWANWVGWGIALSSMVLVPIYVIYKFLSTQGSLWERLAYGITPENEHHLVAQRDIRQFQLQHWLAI

[9] = biological target: T5, Type-1 angiotensin II receptor (Homo sapiens) (UniProt P30556); experiment: Inhibition of type 1 angiotensin 2 receptor at 100 nM
T5 sequence (whole entry): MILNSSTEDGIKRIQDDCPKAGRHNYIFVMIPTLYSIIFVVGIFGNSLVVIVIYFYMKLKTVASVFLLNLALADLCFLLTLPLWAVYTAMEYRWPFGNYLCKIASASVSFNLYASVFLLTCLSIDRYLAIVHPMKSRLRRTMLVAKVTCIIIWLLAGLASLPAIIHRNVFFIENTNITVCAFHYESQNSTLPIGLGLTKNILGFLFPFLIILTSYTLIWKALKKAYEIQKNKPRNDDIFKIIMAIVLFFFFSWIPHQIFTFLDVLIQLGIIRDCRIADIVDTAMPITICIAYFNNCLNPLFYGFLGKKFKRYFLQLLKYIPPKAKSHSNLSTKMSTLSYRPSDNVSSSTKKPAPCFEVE

[10] = biological target: T5, Type-1 angiotensin II receptor (Homo sapiens); experiment: Inhibition of type 1 angiotensin 2 receptor at 10 uM
[11] = biological target: 5-hydroxytryptamine receptor 4 (Homo sapiens, UniProt Q13639); experiment: Inhibitory activity against 5HT4 receptor
Chain of 5-hydroxytryptamine receptor 4 (Q13639 whole entry): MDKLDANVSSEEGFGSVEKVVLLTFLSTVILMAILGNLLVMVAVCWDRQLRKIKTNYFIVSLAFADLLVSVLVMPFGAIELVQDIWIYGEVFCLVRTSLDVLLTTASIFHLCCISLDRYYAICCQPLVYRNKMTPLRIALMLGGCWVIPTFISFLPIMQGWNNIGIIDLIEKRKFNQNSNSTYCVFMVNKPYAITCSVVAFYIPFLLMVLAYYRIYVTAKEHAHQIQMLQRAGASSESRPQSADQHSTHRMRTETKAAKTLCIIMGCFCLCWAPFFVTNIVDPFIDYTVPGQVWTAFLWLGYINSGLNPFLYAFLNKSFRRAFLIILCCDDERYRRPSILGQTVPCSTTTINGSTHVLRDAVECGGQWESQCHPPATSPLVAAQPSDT

[12] = biological target: T4, Sodium-dependent noradrenaline transporter; experiment: Inhibition of NET at 100 nM
[13] = biological target: Estrogen receptor (Homo sapiens) (UniProt Q92731+P03372); experiment: Inhibition of estrogen receptor at 100 nM; assay type: protein assay
[14] = biological target: Muscarinic acetylcholine receptor (Homo sapiens) (UniProt P20309+P08173+P11229+P08172+P08912); experiment: Inhibition of non selective binding to muscarinic receptor at 1 nM; assay type: protein assay
[15] = biological target: 5-hydroxytryptamine receptor 2B (Rattus norvegicus, UniProt P30994); experiment: Activity against 5HT2B receptor in longitudinal stomach fundus strips in wistar rats
Chain of 5-hydroxytryptamine receptor 2B (P30994 whole entry): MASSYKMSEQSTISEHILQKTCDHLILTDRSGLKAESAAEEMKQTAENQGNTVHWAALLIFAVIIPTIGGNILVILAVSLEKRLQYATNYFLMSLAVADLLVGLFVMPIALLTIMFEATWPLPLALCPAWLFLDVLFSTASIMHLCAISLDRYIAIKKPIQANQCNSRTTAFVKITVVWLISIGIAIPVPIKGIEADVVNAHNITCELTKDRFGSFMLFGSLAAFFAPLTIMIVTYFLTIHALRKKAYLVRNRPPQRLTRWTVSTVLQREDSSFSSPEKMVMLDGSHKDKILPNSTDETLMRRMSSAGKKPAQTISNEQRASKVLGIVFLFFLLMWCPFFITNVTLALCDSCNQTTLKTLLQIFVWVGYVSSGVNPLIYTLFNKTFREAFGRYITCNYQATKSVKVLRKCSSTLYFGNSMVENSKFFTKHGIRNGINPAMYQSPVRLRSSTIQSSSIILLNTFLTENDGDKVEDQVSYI

## C[C@H](N)Cn1ncc2ccc(O)cc21
[1]
  inhibition: 14.9%
MDR1 (P-gp)
  Papp A→B: 0.76 ×10⁻⁶ cm/s
[2]
  inhibition: 0.41%
[3]
  inhibition: 18.1%
[4]
  inhibition: 2.04%
[5]
  EC50: 1460 nM
[6]
  Ki: > 10000 nM
[7]
  inhibition: 13%
[8]
  Ki: > 10000 nM
[9]
  inhibition: 7.33%
[10]
  inhibition: 6.55%
[11]
  Ki: 515 nM
[12]
  inhibition: 3.93%
[13]
  inhibition: 13.3%
[14]
  inhibition: -0.51%
[15]
  EC50: 2 nM
